Reference: US20240252586A1, “ENGINEERED ANTIMICROBIAL PEPTIDES AND USAGE THEREOF” (priority 2021, published 2024)
“And” between values parts separate entries of the source, which are not always exact repeats. Identical values can stand only once. Like-named read-outs stand apart in the source and are kept apart here. Where no end group is shown, it is not given here.

Assays:
[1] = tested on: S. aureus NRS 384
Procedure: (§1) Base test media for the TK assay were phosphate-buffered saline (PBS), water, and cation-adjusted Mueller-Hinton broth (CAMHB), all adjusted to pH 7.4 with sodium hydroxide (NaOH) or hydrochloric acid (HCl) and then filter-sterilized.
(§2) Double strength (2×) Dey/Engley neutralizing broth (D/E) was used as a neutralizer for dilution and plating during determination of CFU/mL at each TK assay time point. Track plating was conducted on TSAB for Staphylococcus aureus NRS382 and on TSA without sheep's blood for all other organisms. TSA was used for spread plate enumeration of CFU/mL during a pilot study testing toxicity of D/E to bacteria and neutralization of SEQ ID NO: 1 in D/E.
(§3) Drug stocks of 5120 μg/mL in water at pH 5 were diluted in PBS pH-7.4 to 100× the final concentrations desired for each TK assay and frozen at −20° C. until use.
(§4) The TK test panel was prepared in a 96-well deep well plate, where 890 μL of each test media and 10 μL of 100× drug stocks were added to the appropriate wells. A growth control containing no drug was included, where 10 μl of PBS (pH 7.4) was added in place of drug.
(§5) A cell suspension was prepared from growth of a freshly streaked plate equivalent to the turbidity of a 0.5 McFarland standard in PBS at (pH 7.4). Deep-well test panels prepared as described above were inoculated with 100 μL of the 0.5 McFarland cell suspension, targeting a final inoculum of approximately 1 to 2×10^7 CFU/mL. During the TK assay, the 96 deep-well plate was left on the bench top at room temperature.
(§6) Aliquots of 100 μL were removed from the test panel immediately (0 minutes), and at 2.5, 5, 10, 15, and 30 minutes, and mixed with 100 μL 2×D/E to neutralize the rapid bactericidal activity of SEQ ID NO: 1. Cells were then serially diluted ten-fold in 2× Dey/Engley broth four times yielding a dilution series ranging from 2 to 2×10-4. Ten microliters from each step of the dilution series were track-plated in duplicate on TSA to enumerate viable counts (CFU/mL). Plates were then incubated at 35° C. overnight.
(§7) The resulting colonies were counted, and viable counts (CFU/mL) were determined from the average count of the duplicate plates. The limit of detection (LOD) for the assay was 100 CFU/mL. The LOD reflects the average CFU/ml if just one colony grew from the least diluted sample (DF=2) between the two track plate replicates, where 10 μL had been plated. Log-transformed viable counts (log10 CFU/mL) were then plotted vs. time.

[2] = tested on: E. Coli CDC 0451; settings: 1× MIC, PBS, without sodium bicarbonate
Procedure: as §1, §2, §3, §4, §5, §6, §7

[3] = tested on: 5 test isolates; settings: PBS and H2O, 1× and 0.5× MIC, all evaluated organisms
Procedure: as §1, §2, §3, §4, §5, §6, §7

[4] = tested on: S. epidermidis MMX 8655; settings: by […]; 1× MIC; PBS and H2O
Procedure: as §1, §2, §3, §4, §5, §6, §7

[5] = tested on: P. aeruginosa; assay: Broth microdilution MIC, PJI isolates (Example 1); assay type: cell-based, Pseudomonas aeruginosa; settings: RPMI; N = 20
Procedure: Imipenem, levofloxacin, tigecycline, linezolid, vancomycin, oxacillin, ceftazidime, colistin, and amikacin were tested as comparators. Testing was conducted in accordance with guidelines from the Clinical and Laboratory Standards Institute (CLSI; M7 and M100). Test organisms comprised reference strains from the American Type Culture Collection, the Centers for Disease Control Antibiotic Reference Bank and clinical isolates from the Micromyx repository.

[6] = tested on: P. aeruginosa CDC 0509
Procedure: (§8) SEQ ID NO: 1 stocks were made at 5.12 mg/mL in water adjusted to pH of 5.0 with 1% glacial acetic acid.
(§9) The test organisms (Table 7) consisted of clinical isolates from the Micromyx (MMX) repository, a reference isolate from the American Type Culture Collection (ATCC, Manassas, VA) and the Centers for Disease Control (CDC, Atlanta GA). Upon initial receipt, the isolates were streaked under suitable conditions onto agar medium appropriate to each organism. The organisms were incubated for 18-24 hr at 35° C. in ambient atmosphere. Colonies harvested from these growth plates were resuspended in the appropriate medium containing a cryoprotectant. Aliquots of each suspension were then stored frozen at −80° C. Prior to testing, all organisms were cultured onto trypticase soy agar containing 5% sheep blood. The agar plates were incubated as described above.
(§10) The Test media used for MIC and FIC were testing were cation-adjusted Mueller-Hinton broth (CAMHB) and Roswell Park Memorial Institute (RPMI-1640), buffered with 3-(N-morpholino)propanesulfonic acid (MOPS). Each test media was supplemented with 0.002% Tween-80 (P-80) prior to testing.
(§11) MIC assay plates were prepared for broth microdilution in accordance with guidelines from the Clinical and Laboratory Standards Institute (CLSI); automated liquid handlers (Biomek 3000 and Biomek FX) and multi-channel pipettes were used to conduct serial dilutions and liquid transfers. MIC assay plates were prepared using a 96-well, deep-well microdilution plate that mimicked the layout of the daughter plates.
(§12) For the mother plate, wells across the standard 96-well microdilution plate were filled with 150 μL of sterile saline 0.002% P-80 in columns 2 through 12. […] The Biomek 300 was used to make eleven 2-fold serial dilutions horizontally across each row of the plate from columns 2 through 11. The Biomek FX was then used to transfer 5 μL of the SEQ ID NO: 1 and saline 0.002% P-80 to the daughter plates.
(§13) A standardized inoculum of each organism was prepared per CLSI methods. Suspensions were prepared to equal a 0.5 McFarland standard followed by a 1:10 dilution into test medium. The inocula were dispensed into sterile reservoirs divided by length and the Biomek 3000 was used to inoculate the plates. Daughter plates were placed on the Biomek 3000 work surface in reverse orientation so that inoculation took place from low to high drug concentration. The Biomek 3000 delivered 10 μL of the diluted suspension into each well. These inoculations yielded a final cell concentration in the daughter plates of approximately 5×10^5 CFU/mL in each well. Plates were incubated at 35° C. for 16-20 hr. The microplates were viewed from the bottom using a plate viewer and the MIC was recorded as the lowest concentration of drug that inhibited visible growth of the organism.

[7] = tested on: E. Coli CDC 0451
Procedure: as §8, §9, §10, §11, §12, §13

[8] = tested on: P. aeruginosa CDC 0515
Procedure: as §8, §9, §10, §11, §12, §13

[9] = tested on: E. Coli ATCC 25922
Procedure: as §8, §9, §10, §11, §12, §13

[10] = tested on: S. aureus NRS 382
Procedure: as §8, §9, §10, §11, §12, §13

RRWVRRVRRVWRRVVRVVRRWVRR [SEQ ID NO: 1] was tested, and the log-kill ([1]; 0 min, 0.5 and 1× MIC in H2O, absence of sodium bicarbonate) was ≥ 3 log, the log-kill ([1]; after […], 1× MIC in PBS +/- sodium bicarbonate) was ~3 log and the log-kill ([1]; by […], 0.5 and 1× MIC in H2O, presence of sodium bicarbonate) was ≥ 3 log. For the same sequence, the “killing (log)” value [2] was > 3, the log killing [3] was “Greater than 1 log” and the log-kill [4] was ~3 log. It also gave an MIC50 [5] of 1 µg/mL, an MIC90 [5] of 1 µg/mL and an MIC ([6]; CAMHB) of 8 µg/mL. The MIC ([6]; RPMI) was 4 µg/mL, the MIC ([6]; stated in FIG. 5 legends (time-kill), printed P. Aeruginosa CDC 0451) was 16 µg/mL and the MIC ([7]; CAMHB) was 1 µg/mL and 2 µg/mL. For the same sequence, the MIC ([7]; RPMI) was 0.5 µg/mL, the MIC ([8]; CAMHB) was 8 µg/mL and the MIC ([8]; RPMI) was 1 µg/mL. For the same sequence, the MIC ([9]; CAMHB) was 4 µg/mL, the MIC ([9]; RPMI) was 0.5 µg/mL and the MIC ([10]; RPMI) was 0.5 µg/mL. It also gave an MIC ([10]; stated in FIG. 2 legends (time-kill), printed S. aureus NRS 382) of 8 µg/mL.
